Consider eleven molecules from PMC7962978, “PSMA-D4 Radioligand for Targeted Therapy of Prostate Cancer: Synthesis, Characteristics and Preliminary Assessment of Biological Properties” (International Journal of Molecular Sciences, 2021).

Read-outs that look alike come from different tables or passages of the source.

Series [1] relates to LNCaP cells. The series is described as follows: Cell uptake (total binding) and internalization in LNCaP cells. Type of series: cell-based, human. To be noted: 37 °C, 2 h. The protocol:
To determine cell uptake and internalization of [^177Lu]Lu-PSMA-D4 and [^90Y]Y-PSMA-D4, LNCaP cells (5 × 10^5 cells well^−1) were incubated in un-supplemented RPMI 1640 medium with one concentration of tested radioligands on 12-well plates in 37 °C per 2 h. After the appropriate time, the medium was removed, and cells were washed twice using phosphate buffer saline (PBS, IITD PAN, Wroclaw, Poland). The cells were treated twice with 1 mL of 50 mM glycine in 0.1 M NaCl at a pH of 2.8 and incubated for 5 min at room temperature to collect extracellularly bound compound. The internalization was determined by measuring the radioactivity of 1mL of 1 M NaOH used for cell lysis. Total binding was calculated as a sum of the membrane and internalized fractions measured using Wallac Wizard 1470 γ counter. As a control, [^177Lu]Lu-PSMA-617 and [^68Ga]Ga-PSMA-11 were used.

For series [2], the target named is T1, PSMA antigen (Homo sapiens, UniProt Q04609).
T1 construct: PSMA antigen expressed on LNCaP cell membranes; endogenous in cells; host or cells: LNCaP cell membranes (PC3 membranes as PSMA-negative control)
T1 sequence (Q04609 whole entry): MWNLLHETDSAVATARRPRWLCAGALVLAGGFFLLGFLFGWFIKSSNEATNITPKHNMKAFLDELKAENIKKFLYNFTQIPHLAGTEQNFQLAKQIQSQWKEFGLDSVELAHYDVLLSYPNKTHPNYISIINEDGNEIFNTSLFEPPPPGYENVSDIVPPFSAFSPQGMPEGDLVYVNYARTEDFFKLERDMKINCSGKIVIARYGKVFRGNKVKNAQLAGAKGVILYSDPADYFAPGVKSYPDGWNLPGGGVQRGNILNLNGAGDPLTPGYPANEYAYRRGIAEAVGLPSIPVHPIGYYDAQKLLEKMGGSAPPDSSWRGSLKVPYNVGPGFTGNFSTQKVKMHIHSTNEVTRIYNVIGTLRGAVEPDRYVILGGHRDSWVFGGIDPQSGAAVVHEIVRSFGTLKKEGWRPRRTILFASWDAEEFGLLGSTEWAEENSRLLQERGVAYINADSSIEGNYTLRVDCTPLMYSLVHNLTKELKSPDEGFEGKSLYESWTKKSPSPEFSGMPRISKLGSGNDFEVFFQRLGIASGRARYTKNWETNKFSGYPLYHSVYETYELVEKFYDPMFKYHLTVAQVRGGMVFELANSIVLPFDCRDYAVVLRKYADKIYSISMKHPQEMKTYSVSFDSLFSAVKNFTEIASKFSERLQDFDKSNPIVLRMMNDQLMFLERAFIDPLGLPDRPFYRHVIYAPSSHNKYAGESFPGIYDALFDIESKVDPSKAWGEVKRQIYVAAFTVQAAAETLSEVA
The series is described as follows: Competitive binding assay on LNCaP cell membranes with [^177Lu]Lu-PSMA-617 as radioligand. The note with it: radioligand [^177Lu]Lu-PSMA-617, 2 h incubation. The protocol: The half-maximal inhibitory concentration (IC50) of PSMA-D4 was determined in a competitive binding assay carried out on 96-well MuliScreen filter plates using LNCaP cell membranes (50 mcL) incubated with [^177Lu]Lu-PSMA-617 as a radioligand and ten different concentrations (2.4–9708 nM) of PSMA-D4. After 2 h incubation, plates were treated in the same way as in the saturation binding assay. The amount of bound radioactivity was measured in γ-counter. IC50 value was evaluated using GraphPad Prism software (Darmstadt, Germany).

The subject of series [3] is mCRPC patients. The arrangement: method as in PMID 32172798, PMID 31418764, PMID 32290196. The note with it: four clinical studies, approximately 150 mCRPC patients; cited from earlier work.
The subject of series [4] is PSMA. The arrangement: method as in earlier work. To be noted: ref 34 (Tönnesmann R et al.); cited from earlier work.
Series [5] has as its system PC-3 PIP (PSMA positive) tumor-bearing mice. The arrangement: method as in PMID 28102507. The note with it: PC-3 PIP tumor, 2 h p.i.v., 1 nmol, BALB/c Nude mice; cited from earlier work.
The target of series [6] is T1, PSMA antigen. The series is described as follows: Saturation radioligand binding assay on LNCaP (PSMA positive) and PC3 (PSMA negative) cell membranes. The note with it: for Kd: LNCaP cell membranes, 2 h, 37 °C; for Specific Binding: total binding on LNCaP minus non-specific binding on PC3 membranes. The protocol: The equilibrium constant (KD) was determined by a saturation binding experiment performed in PSMA positive LNCaP and PSMA negative PC3 cell membranes isolated according to the procedure developed by Fichna et al.. The 50 mcL of LNCaP and PC3 cell membranes were seeded on special MultiScreen™ 96 well filter plates (Merck, Warsaw, Poland) and incubated for 2 h with increasing concentration of [^177Lu]Lu-PSMA-D4, [^90Y]Y-PSMA-D4, and […] (0.016–194 nM) at 37 °C. After incubation, the unbound radiocomplexes were filtered under vacuum, and the membranes were washed twice using PBS. The filters containing membranes with the attached radiotracer were extruded into tubes using MultiScreen Multile Punch (Merck). The number of associated inhibitors was determined by measuring the radioactivity of squeezed filters using Wallac Wizard 1470 γ counter. The KD and Bmax were calculated by nonlinear regression using the GraphPad Prism statistic program.

The nature of series [7]: Lipophilicity determination (logD), shake-flask method. It counts as physicochemical. The note with it: n-octanol / PBS pH 7.4, shake-flask. The protocol:
The partition coefficient logD of the radioligands was determined by the shake-flask method. The solution of 10 to 50 MBq of radiolabeled PSMA ligands (D-4, 617, 11, I&T) in 1.0 mL of phosphate-buffered saline (PBS, pH 7.4) was added to 1.0 mL of presaturated n-octanol solution (n = 3). Vials were shaken vigorously for 10 min. To achieve quantitative phase separation, the vials were centrifuged at 1600 rpm for 5 min. The radioactivity concentration in a defined volume of both the aqueous and the organic phase in six replicates each was measured in a γ-counter (Wizard 1470, Wallac, Turku, Finland). The partition coefficient was calculated as the logarithm of the ratio between counts per minute (cpm) measured in the n-octanol phase to the PBS phase counts.

The subject of series [8] is LNCaP tumor-bearing mice. The note with it: 1 h p.i.v., cited from earlier work.
[9] abbreviates: 0.2 nmol, CD-1 nu/nu mice, ref 14.
The mark [10] stands for this setting: 0.2 nmol, CD-1 nu/nu mice, ref 37.

On to `O=C(O)CCc1ccc(O)c(CN(CCN(CC(=O)O)Cc2cc(CCC(=O)NCCCCCC(=O)NCCCC[C@H](NC(=O)N[C@@H](CCC(=O)O)C(=O)O)C(=O)O)ccc2O)CC(=O)O)c1` [PSMA-11, reference compound], for which the Internalization in series [1] worked out at 2.6%. The same molecule yielded an IC50 in series [2] of 0.0845 ± 0.0265 µM.

As to `O=C([O-])CN1CCN(CC(=O)[O-])CCN(CC(=O)NCC2CCC(C(=O)NC(Cc3ccc4ccccc4c3)C(=O)NCCCCC(NC(=O)NC(CCC(=O)O)C(=O)O)C(=O)O)CC2)CCN(CC(=O)[O-])CC1.[225Ac+3]` (centres unmarked) [PSMA-617 labeled with actinium-225], in series [3], the hematologic toxicity result is reported as “extremely low hematologic toxicity” and the “patients with prostate-specific antigen (PSA) response in terms of PSA decline” value is reported as roughly 90%.

Take `O=C(O)CC[C@H](NC(=O)N[C@@H](CCCCNC(=O)[C@H](Cc1ccc2ccccc2c1)NC(=O)[C@H]1CC[C@H](CNC(=O)CN2CCN(CC(=O)O)CCN(CC(=O)O)CCN(CC(=O)O)CC2)CC1)C(=O)O)C(=O)O` [PSMA-617, Glu-CO-Lys-2-naphthyl-L-Ala-cyclohexane-DOTA]: the IC50 in series [4] was 0.0027 ± 0.0001 µM.

On to `O=C(O)CCC(NC(=O)NC(CCCCNC(=O)C(Cc1c[nH]c2ccccc12)NC(=O)C1CCC(CNC(=O)CN2CCN(CC(=O)O)CCN(CC(=O)O)CCN(CC(=O)O)CC2)CC1)C(=O)O)C(=O)O` [PSMA-D4, Glu-CO-Lys-L-Trp-4-Amc-DOTA], for which, in series [2], the IC50 was 0.0287 ± 0.0052 µM.

On to `O=C(O)CC[C@H](NC(=O)N[C@@H](CCCCNC(=O)CCCCCCC(=O)NCCCC[C@@H](NC(=O)[C@@H](Cc1ccccc1)NC(=O)[C@@H](Cc1ccc(O)c(I)c1)NC(=O)CCC(C(=O)O)N1CCN(CC(=O)O)CCN(CC(=O)O)CCN(CC(=O)O)CC1)C(=O)O)C(=O)O)C(=O)O` (some centres unmarked) [PSMA-I&T, Glu-CO-Lys[(Sub)DLys-DPhe-DTyr(3I)-DOTAGA]], for which the IC50 in series [2] is 0.0611 ± 0.0078 µM.

Consider `O=C([O-])CN1CCN(CC(=O)[O-])CCN(CC(=O)NCC2CCC(C(=O)NC(Cc3ccc4ccccc4c3)C(=O)NCCCCC(NC(=O)NC(CCC(=O)O)C(=O)O)C(=O)O)CC2)CCN(CC(=O)[O-])CC1.[47Sc+3]` (centres unmarked) [[^47Sc]Sc-PSMA-617], for which, in series [5], the kidneys is given as 5.97 ± 0.90 %ID g^−1, the spleen is 0.81 ± 0.34 %ID g^−1 and the tumor was 46.7 ± 4.36 %ID g^−1.

For `O=C([O-])CN(CCN(CC(=O)[O-])Cc1cc(CCC(=O)NCCCCCC(=O)NCCCC[C@H](NC(=O)N[C@@H](CCC(=O)O)C(=O)O)C(=O)O)ccc1[O-])Cc1cc(CCC(=O)O)ccc1[O-].[68Ga+3].[OH3+]` [[^68Ga]Ga-PSMA-11], in series [6], the Kd stood at 0.0114 ± 0.0071 µM and the “Specific Binding” value came out at 96.8 ± 2.7%. Besides, in series [1], the Internalization was 2.6% and the “Total Binding” value was 13.1%. In series [5], the kidneys is recorded as 58.8 ± 7.62 %ID g^−1, the spleen is 2.18 ± 0.38 %ID g^−1 and the tumor is 40.0 ± 2.55 %ID g^−1. The logD in series [7] is on record as −3.46 ± 0.06. The tumor in series [8] (dose n.d., Nude mice) is 7.28 ± 0.82 %ID g^−1.

As for `O=C([O-])CN1CCN(CC(=O)[O-])CCN(CC(=O)NCC2CCC(C(=O)NC(Cc3ccc4ccccc4c3)C(=O)NCCCCC(NC(=O)NC(CCC(=O)O)C(=O)O)C(=O)O)CC2)CCN(CC(=O)[O-])CC1.[68Ga+3]` (centres unmarked) [[^68Ga]Ga-PSMA-617], in series [5], the kidneys is 3.48 ± 0.18 %ID g^−1, the spleen was 0.91 ± 0.14 %ID g^−1 and the tumor is listed as 55.8 ± 14.2 %ID g^−1.

`O=C([O-])CN1CCN(CC(=O)[O-])CCN(CC(=O)NCC2CCC(C(=O)NC(Cc3ccc4ccccc4c3)C(=O)NCCCCC(NC(=O)NC(CCC(=O)O)C(=O)O)C(=O)O)CC2)CCN(CC(=O)[O-])CC1.[90Y+3]` (centres unmarked) [[^90Y]Y-PSMA-617] showed a log distribution coefficient (logD) in series [7] of −5.08 ± 0.13.

Take `O=C([O-])CN1CCN(CC(=O)[O-])CCN(CC(=O)NCC2CCC(C(=O)NC(Cc3ccc4ccccc4c3)C(=O)NCCCCC(NC(=O)NC(CCC(=O)O)C(=O)O)C(=O)O)CC2)CCN(CC(=O)[O-])CC1.[177Lu+3]` (centres unmarked) [[^177Lu]Lu-PSMA-617]: in series [1], the Internalization is 35.4–38.9% and the “Total Binding” value is on record as 10.2–16.8%. Also, in series [1] (listed as [^177Lu]Lu-PSMA 617), the Internalization is 38.9 ± 1.7% and the “Total Binding” value is 12.8 ± 1.0%. The Kd in series [4] is 0.002 ± 0.0003 µM. Besides, in series [5], the kidneys was 3.97 ± 0.56 %ID g^−1, the spleen was 0.21 ± 0.03 %ID g^−1 and the tumor is 45.8 ± 4.02 %ID g^−1. In addition, the logD in series [7] is recorded as −5.12 ± 0.07.

For `O=C([O-])CC[C@H](NC(=O)N[C@@H](CCCCNC(=O)CCCCCCC(=O)NCCCC[C@@H](NC(=O)[C@@H](Cc1ccccc1)NC(=O)[C@@H](Cc1ccc(O)c(I)c1)NC(=O)CC[C@H](C(=O)[O-])N1CCN(CC(=O)[O-])CCN(CC(=O)[O-])CCN(CC(=O)[O-])CC1)C(=O)[O-])C(=O)[O-])C(=O)[O-].[177Lu+3].[H+].[H+].[H+].[H+].[H+]` [[^177Lu]Lu-PSMA-I&T], in series [6], binding was characterised by a dissociation constant (Kd) of 0.0051 ± 0.0026 µM and the “Specific Binding” value was 97.1 ± 2.9%. For the same molecule, the logD in series [7] was −4.47 ± 0.14. In series [8] (setting [9]), the kidneys was 107.24 ± 15.61 %ID g^−1, the spleen is 5.85 ± 2.26 %ID g^−1 and the tumor is listed as 7.96 ± 1.76 %ID g^−1. In series [8] (setting [10]), the kidneys is listed as 105.3 ± 15.8 %ID g^−1, the spleen was 7.9 ± 2.6 %ID g^−1 and the tumor was 8.0 ± 1.7 %ID g^−1.

Broadly, the IC50 is the point on the concentration scale where inhibition reaches its midpoint. A word on the Kd: it is a measure of binding affinity in units of concentration. For orientation: logD means lipophilicity at a set pH, counting ionised and neutral species. A high value points to a more lipophilic compound.
